The numbers were not newly measured in US20220401389A1, “TRANSMUCOSAL THERAPEUTIC SYSTEM CONTAINING AGOMELATINE” (LTS LOHMANN Therapie-Systeme AG, priority 2019, published 2022), which cites them from elsewhere.

A value given as a limit tells only on which side of the number the result lay.

Where [1] appears, read: patients with moderate hepatic impairment compared to healthy subjects.

As to `COc1ccc2cccc(CCNC(C)=O)c2c1` [agomelatine, N-(2-(7-Methoxy-1-naphthyl)ethyl)acetamide], under “oral”, the oral absorption is given as > 80% and the overall bioavailability entry is “less than 5%”. In addition, under setting [1], the “increase of AUC” value is on record as “up to 140 fold” and the increase of cmax result is on record as “up to 140 fold”.
